The record followed here is PMC5343058 (The Korean Journal of Physiology & Pharmacology : Official …, 2017).

For the assay, the target named is T1, hSlo3+hLRRC52 (Homo sapiens, UniProt A8MYU2).
T1 sequence (A8MYU2 1-1149): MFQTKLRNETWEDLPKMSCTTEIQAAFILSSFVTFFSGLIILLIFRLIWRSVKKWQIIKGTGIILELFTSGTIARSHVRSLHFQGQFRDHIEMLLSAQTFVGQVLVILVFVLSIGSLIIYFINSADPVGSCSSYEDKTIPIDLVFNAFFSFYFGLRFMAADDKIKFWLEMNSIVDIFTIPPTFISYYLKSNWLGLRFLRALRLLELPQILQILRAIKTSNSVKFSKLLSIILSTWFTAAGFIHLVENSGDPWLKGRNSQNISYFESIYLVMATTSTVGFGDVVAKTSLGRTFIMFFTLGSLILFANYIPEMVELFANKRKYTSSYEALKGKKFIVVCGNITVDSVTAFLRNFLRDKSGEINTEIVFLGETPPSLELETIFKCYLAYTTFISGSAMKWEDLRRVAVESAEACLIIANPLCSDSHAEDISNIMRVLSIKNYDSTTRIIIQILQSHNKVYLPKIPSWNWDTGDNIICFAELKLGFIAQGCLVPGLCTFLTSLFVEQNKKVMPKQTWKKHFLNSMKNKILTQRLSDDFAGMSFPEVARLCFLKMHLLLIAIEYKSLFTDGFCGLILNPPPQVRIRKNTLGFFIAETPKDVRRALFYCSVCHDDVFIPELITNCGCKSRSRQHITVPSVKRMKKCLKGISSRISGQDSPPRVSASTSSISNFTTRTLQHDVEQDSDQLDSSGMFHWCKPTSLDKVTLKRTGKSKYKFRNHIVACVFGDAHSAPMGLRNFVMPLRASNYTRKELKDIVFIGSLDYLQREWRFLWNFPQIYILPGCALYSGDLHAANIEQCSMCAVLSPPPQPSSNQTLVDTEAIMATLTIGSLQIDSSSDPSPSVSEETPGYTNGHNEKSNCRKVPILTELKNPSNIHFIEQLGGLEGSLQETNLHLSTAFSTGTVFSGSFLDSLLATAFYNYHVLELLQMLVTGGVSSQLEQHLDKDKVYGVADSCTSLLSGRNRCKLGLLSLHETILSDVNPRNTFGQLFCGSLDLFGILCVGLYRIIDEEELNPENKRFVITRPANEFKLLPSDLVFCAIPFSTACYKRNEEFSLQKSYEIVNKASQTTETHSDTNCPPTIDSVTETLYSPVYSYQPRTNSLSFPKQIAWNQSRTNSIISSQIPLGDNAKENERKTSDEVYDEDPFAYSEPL
T1 sequence (Q8N7C0 24-313 partner): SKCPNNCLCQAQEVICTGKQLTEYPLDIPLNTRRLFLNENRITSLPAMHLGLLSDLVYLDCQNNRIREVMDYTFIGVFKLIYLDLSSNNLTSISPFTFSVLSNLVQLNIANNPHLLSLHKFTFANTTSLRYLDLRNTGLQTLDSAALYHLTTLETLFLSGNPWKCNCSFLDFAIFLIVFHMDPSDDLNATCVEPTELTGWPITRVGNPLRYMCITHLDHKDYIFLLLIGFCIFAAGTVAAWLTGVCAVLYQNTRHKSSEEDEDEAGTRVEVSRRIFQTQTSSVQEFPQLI
As to the kind of experiment: whole-cell patch clamp, HEK293, voltage ramp. Type of assay: cell-based. The settings on record: HEK293, read-out: % inhibition at 20 mM.

In the case of `CC[N+](CC)(CC)CC` [TEA], the inhibition at 20000 µM stood at 41 ± 5.19%.
